According to ChEMBL document CHEMBL1201862, “PubChem BioAssay data set” (2004):
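Step 1: Grow cells in 96-well plates. Step 2: Expose to compound for 48 hours at 5 concentrations. Step 3: Interpolate endpoints linearly; if unreached, use highest concentration. GI50: concentration for 50% inhibition of growth.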 Active and inactive are the calls of the source. Cut-off read from the data, not from the text of the source: active = GI50 up to about 1.1 µM and inactive = higher.

Tests used:
Assay in all cases: NCI anticancer screen, dose series, 48 h
786-0 = tested on: 786-0
A498 = tested on: A498
A549 = tested on: A549
ACHN = tested on: ACHN
BT-549 = tested on: BT-549
CAKI-1 = tested on: CAKI-1
CCRF-CEM = tested on: CCRF-CEM
COLO 205 = tested on: COLO 205
DU-145 = tested on: DU-145
EKVX = tested on: EKVX
HCC 2998 = tested on: HCC 2998
HCT-116 = tested on: HCT-116
HCT-15 = tested on: HCT-15
HL-60 = tested on: HL-60
HOP-62 = tested on: HOP-62
HOP-92 = tested on: HOP-92
HT-29 = tested on: HT-29
Hs-578T = tested on: Hs-578T
IGROV-1 = tested on: IGROV-1
K562 = tested on: K562
KM12 = tested on: KM12
M14 = tested on: M14
MCF7 = tested on: MCF7
MDA-MB-231 = tested on: MDA-MB-231
MDA-MB-435 = tested on: MDA-MB-435
MOLT-4 = tested on: MOLT-4
NCI-H226 = tested on: NCI-H226
NCI-H23 = tested on: NCI-H23
NCI-H460 = tested on: NCI-H460
NCI-H522 = tested on: NCI-H522
NCI/ADR-RES = tested on: NCI/ADR-RES
OVCAR-3 = tested on: OVCAR-3
OVCAR-4 = tested on: OVCAR-4
OVCAR-5 = tested on: OVCAR-5
OVCAR-8 = tested on: OVCAR-8
PC-3 = tested on: PC-3
RPMI-8226 = tested on: RPMI-8226
RXF 393 = tested on: RXF 393
SF-268 = tested on: SF-268
SF-295 = tested on: SF-295
SF-539 = tested on: SF-539
SK-MEL-28 = tested on: SK-MEL-28
SK-MEL-2 = tested on: SK-MEL-2
SK-MEL-5 = tested on: SK-MEL-5
SK-OV-3 = tested on: SK-OV-3
SN12C = tested on: SN12C
SNB-19 = tested on: SNB-19
SNB-75 = tested on: SNB-75
SR = tested on: SR
SW-620 = tested on: SW-620
T47D = tested on: T47D
TK-10 = tested on: TK-10
U-251 = tested on: U-251
UACC-257 = tested on: UACC-257
UACC-62 = tested on: UACC-62
UO-31 = tested on: UO-31
LOX IMVI = tested on: LOX IMVI
MDA-N = tested on: MDA-N
Malme-3M = tested on: Malme-3M

COc1ccc(CCCCl)c(C2=NCCc3cc(OC)c(OC)cc32)c1
GI50 (786-0): 94.8 µM (inactive) | GI50 (A498): > 100 µM (inactive) | GI50 (A549): 69.7 µM (inactive) | GI50 (ACHN): 68.1 µM (inactive) | GI50 (BT-549): 37.8 µM (inactive) | GI50 (CAKI-1): 39.7 µM (inactive) | GI50 (CCRF-CEM): 92.5 µM (inactive) | GI50 (COLO 205): 25.7 µM (inactive) | GI50 (DU-145): > 100 µM (inactive) | GI50 (EKVX): 53.6 µM (inactive) | GI50 (HCC 2998): 48.4 µM (inactive) | GI50 (HCT-116): 33 µM (inactive) | GI50 (HCT-15): 71.1 µM | GI50 (HL-60): 27.5 µM (inactive) | GI50 (HOP-62): 91.2 µM (inactive) | GI50 (HOP-92): 20.6 µM (inactive) | GI50 (HT-29): 36.1 µM (inactive) | GI50 (Hs-578T): 32.7 µM (inactive) | GI50 (IGROV-1): 39.9 µM (inactive) | GI50 (K562): 28.3 µM (inactive) | GI50 (KM12): 38.8 µM (inactive) | GI50 (M14): 43.9 µM (inactive) | GI50 (MCF7): 41.5 µM (inactive) | GI50 (MDA-MB-231): 69.3 µM (inactive) | GI50 (MDA-MB-435): 35.6 µM (inactive) | GI50 (MOLT-4): 41.6 µM (inactive) | GI50 (NCI-H226): 27.9 µM (inactive) | GI50 (NCI-H23): 31.5 µM (inactive) | GI50 (NCI-H460): 37.8 µM (inactive) | GI50 (NCI-H522): 28.8 µM (inactive) | GI50 (NCI/ADR-RES): 46.8 µM (inactive) | GI50 (OVCAR-3): 92.7 µM (inactive) | GI50 (OVCAR-4): > 100 µM (inactive) | GI50 (OVCAR-5): > 100 µM (inactive) | GI50 (OVCAR-8): 25.6 µM (inactive) | GI50 (PC-3): 35.3 µM (inactive) | GI50 (RPMI-8226): 6.87 µM (inactive) | GI50 (RXF 393): 54.7 µM (inactive) | GI50 (SF-268): 49.3 µM (inactive) | GI50 (SF-295): 48.5 µM (inactive) | GI50 (SF-539): 79.3 µM (inactive) | GI50 (SK-MEL-28): 63.2 µM (inactive) | GI50 (SK-MEL-2): 39.7 µM (inactive) | GI50 (SK-MEL-5): 26.1 µM (inactive) | GI50 (SK-OV-3): > 100 µM (inactive) | GI50 (SN12C): 54.3 µM (inactive) | GI50 (SNB-19): 30 µM (inactive) | GI50 (SNB-75): 42.3 µM (inactive) | GI50 (SR): > 100 µM (inactive) | GI50 (SW-620): 72.1 µM (inactive) | GI50 (T47D): 46.1 µM (inactive) | GI50 (TK-10): > 100 µM (inactive) | GI50 (U-251): 23.6 µM (inactive) | GI50 (UACC-257): 42.3 µM (inactive) | GI50 (UACC-62): 32.8 µM (inactive) | GI50 (UO-31): 38 µM (inactive)

CC(=O)N/N=C1/CC[C@@]2(C)C(=CC[C@H]3C4CCC(C(C)CCCC(C)C)[C@@]4(C)CCC32)C1(C)C (stereo not given in full)
GI50 (786-0): 43.7 µM (inactive) | GI50 (A549): 31.1 µM (inactive) | GI50 (ACHN): 62.4 µM (inactive) | GI50 (BT-549): > 100 µM (inactive) | GI50 (CAKI-1): > 100 µM (inactive) | GI50 (CCRF-CEM): 13.8 µM (inactive) | GI50 (COLO 205): 32.9 µM (inactive) | GI50 (DU-145): > 100 µM (inactive) | GI50 (EKVX): > 100 µM (inactive) | GI50 (HCT-116): 48.8 µM (inactive) | GI50 (HCT-15): 40.6 µM | GI50 (HL-60): 42 µM (inactive) | GI50 (HOP-62): > 100 µM (inactive) | GI50 (HOP-92): > 100 µM (inactive) | GI50 (HT-29): 31.5 µM (inactive) | GI50 (Hs-578T): > 100 µM (inactive) | GI50 (IGROV-1): 57.4 µM (inactive) | GI50 (K562): 15.9 µM (inactive) | GI50 (KM12): 46.3 µM (inactive) | GI50 (LOX IMVI): 3.94 µM (inactive) | GI50 (M14): 48 µM (inactive) | GI50 (MCF7): 53.7 µM (inactive) | GI50 (MDA-MB-435): 82 µM (inactive) | GI50 (MDA-N): > 10 µM (inactive) | GI50 (MOLT-4): 11 µM (inactive) | GI50 (Malme-3M): > 100 µM (inactive) | GI50 (NCI-H226): > 100 µM (inactive) | GI50 (NCI-H23): 70 µM (inactive) | GI50 (NCI-H460): 32.1 µM (inactive) | GI50 (NCI-H522): 58.9 µM (inactive) | GI50 (NCI/ADR-RES): 47.8 µM (inactive) | GI50 (OVCAR-3): 74.8 µM (inactive) | GI50 (OVCAR-4): 50.5 µM (inactive) | GI50 (OVCAR-5): > 100 µM (inactive) | GI50 (OVCAR-8): 51.1 µM (inactive) | GI50 (PC-3): 30.1 µM (inactive) | GI50 (RPMI-8226): > 100 µM (inactive) | GI50 (SF-268): 63 µM (inactive) | GI50 (SF-295): 22.3 µM (inactive) | GI50 (SK-MEL-28): > 100 µM (inactive) | GI50 (SK-MEL-2): 58.3 µM (inactive) | GI50 (SK-MEL-5): 37.4 µM (inactive) | GI50 (SK-OV-3): > 100 µM (inactive) | GI50 (SN12C): 51.4 µM (inactive) | GI50 (SNB-19): 75.3 µM (inactive) | GI50 (SNB-75): > 100 µM (inactive) | GI50 (SR): 50.9 µM (inactive) | GI50 (SW-620): 53.3 µM (inactive) | GI50 (T47D): 70.5 µM (inactive) | GI50 (TK-10): > 100 µM (inactive) | GI50 (U-251): 75.5 µM (inactive) | GI50 (UACC-257): 36.6 µM (inactive) | GI50 (UACC-62): > 100 µM (inactive) | GI50 (UO-31): 82 µM (inactive)
